Data on one molecule can be found in article PMC10610016, “New Hybrid Compounds Incorporating Natural Products as Multifunctional Agents against Alzheimer’s Disease” (Pharmaceutics, 2023).

Structures are written as SMILES.

One data set can be described thus: ABTS assay. In kind it is biochemical. As to the method: The ABTS assay was performed according to the methods reported in literature. Briefly, 7 mM of ABTS was mixed with 2.45 mM of K2S2O8 solution, ratio 1:1, in 10 mM phosphate buffer (pH 7.4). The mixture was incubated in a dark box at r.t. for 12 h, then the stock solution was diluted until the absorbance was 0.70 ± 0.02 at 734 nm.
In a 96-well plate, 190 µL ABTS working solution and 10 µL sample solution (compounds 2a–c, 3a–c at concentration of 100 μM) were mixed and the absorbance was measured (734 nm) using a SPECTROstarNano (220–1000 nm) UV–Vis spectrophotometer, Ortenberg, Germany. Then, for compounds 2a–c the EC50 was calculated and the values were expressed in TEAC equivalents. Each concentration was tested in triplicate and the EC50 was reported as the mean ± SEM of three independent experiments.

Data set [1] in a line: DPPH radical scavenging assay. In kind it is biochemical. As to the method: The DPPH assay was carried out in a 96-microwell plate according to a previously described protocol. In brief, DPPH solution (60 µM in MeOH) was added to studied compounds or MeOH as the control. The 96-microwell plate was incubated (in the dark, at r.t. for 1 h) and the absorbance values were read at 517 nm by a SPECTROstarNano (220–1000 nm) UV–Vis spectrophotometer, Ortenberg, Germany. During the first screening, all compounds were tested ad 100 µM, then for compounds 2a–c the EC50 (effective concentration), the concentration of substrate that causes a 50% reduction in the DPPH colour, was calculated.
All experiments were made in triplicate. The percentage of the antioxidant activity (%AA) of the compounds was determined according to Equation (1):%AA = ((AbsDPPH − Abssample)/AbsDPPH) × 100(1)
AbsDPPH is the absorbance of DPPH solution, and Abssample is the absorbance of DPPH solution containing the tested compound.
Each concentration was tested in triplicate and the EC50 value was reported as the mean ± the standard error of the mean (SEM) of three independent experiments.
A general note: DPPH is a stable violet radical that fades when it is reduced.

Another data set deals with rat brain homogenate. Nature of the data set: TBARS assay, ex vivo rat brain homogenate (Fe3+/ascorbic acid lipid peroxidation). In kind it is biochemical. To be noted: compound 1 μM. The protocol: The TBARS assay was carried on in accordance with a previously published protocol. Briefly, the rat brain, freshly isolated, was homogenized in 10% (w/v) phosphate buffer, pH 7.4. The stock solutions of compounds 2a–c and 3a–c (10 mM in DMSO) were prepared and then diluted at three different concentrations (1 mM, 100 µM, and 10 µM) with phosphate buffer pH 7.4. The experiment was performed in a falcon tube where the rat brain homogenate (100 µL) was added to FeCl3 (20 µM) and ascorbic acid (100 µM) with or without test compounds. […] All samples were heated at 37 °C and were stirred for 30 min. After this period, thiobarbituric acid (1% w/v in 0.05 N NaOH) and 25% v/v HCl were added and the falcon tubes were boiled for 10 min. Then, they were cooled in an ice-cold water bath. Finally, the extraction was executed using n-butanol (3 mL) and the tubes were centrifuged at 2000 g for 10 min. The organic portion was transferred into 96-well plates and the absorbance, at 532 nm, was recorded using a SPECTROstarNano (220–1000 nm) UV–Vis spectrophotometer, Ortenberg, Germany. The TBARS was reported as nmoles of malondialdehyde (MDA)/10 mg of rat brain tissue, by interpolation with the standard curve of 1,1,3,3-tetramethoxypropane. Data represent the mean ± SEM of the triplicate.

[2] abbreviates: mean ± SEM of three independent experiments.

What is called EC50 is the concentration giving half of the maximal effect. Broadly, the melting point is the temperature, or range, at which the solid turns liquid. Take `O=C(/C=C/c1ccc(O)c(O)c1)NOCc1cccc(C(F)(F)F)c1` [Compound 2b, (E)-3-(3,4-dihydroxyphenyl)-N-((3-(trifluoromethyl)benzyl)oxy)acrylamide]: the melting point lay in the range of 110 to 112 °C. Also, the “radical scavenger / antioxidant activity, ABTS” value in “ABTS assay” (compound 100 µM) turned out to be 98.8%. In the data set “ABTS assay” (setting [2]), the concentration for a half-maximal effect (EC50) was 13.4 ± 0.1 µM and the “TEAC, ABTS” value came to 11.7 ± 0.01 µM. For the same molecule, the “%AA (percentage of antioxidant activity), DPPH” value in data set [1] (compound 100 µM, DPPH 60 µM in MeOH, 1 h) came to 96%. For the same molecule, in data set [1] (setting [2]), the EC50 came to 6.1 ± 0.1 µM and the “TEAC (Trolox equivalent antioxidant capacity), DPPH” value is on record as 10.9 ± 0.3 µM. The “antioxidant effect on TBARS production in rat brain” value in the data set on rat brain homogenate is “maintained its profile”.
